From patent US20060160095A1, “Survivin” (EiRx Therapeutics Limited, priority 2002, published 2006)
e = 2'-O-(2-methoxyethyl) (MOE); d = 2'-deoxy (DNA)

Assays:
[1] = tested on: Primary human neutrophils; assay: MTT survival assay of neutrophils cultured with GM-CSF, with or without gliotoxin; format: cell-based; settings: 0.1 μg/ml added with 5 U/ml GM-CSF
Method: Primary human neutrophils are isolated and purified from peripheral blood of normal healthy individuals. Neutrophils are resuspended in serum containing culture medium together with various amounts of GM-CSF at a density of 2×10^6/ml, with 100 μl plated into a 96 well plate and cultured for 18 h at 37° C. After this time 10 μl of MTT (5 mg/ml) is added to the cultures and incubated for a further 4 h at 37° C. before solubilisation of the purple coloured formazan with acidic isopropanol. Optical densities are read at 570 nm using a plate reader.
Primary human neutrophils are isolated and purified from peripheral blood of normal healthy individuals. Neutrophils are resuspended in serum containing culture medium containing 5 U/ml of GM-CSF at a concentration of 2×10^6/ml. […] After the indicated time, 10 μl of MTT (5 mg/ml) are added to the cultures and incubated for a further 4 h at 37° C. before solubilisation of the purple coloured formazan with acidic isopropanol. Optical densities are read at 570 nm using a plate reader.

caspase-3 [2] = assay: Enzymatic caspase assay (Ac-DEVD-pNA) in neutrophil lysates; format: cell-based, human
Method: (§1) Neutrophils (2.5×10^6) are cultured in the presence or absence of GM-CSF (50 ng/ml), G-CSF (25 ng/ml), 2-MOE modified antisense or mismatch survivin oligonucleotides at the indicated concentrations for 10 h, washed with cold PBS and subsequently lysed in 50 μl cell lysis buffer (50 mM HEPES, pH 7.4/0.1% Chaps/5 mM DTT/0.1 mM EDTA) using a Teflon glass homogenizer (VWR International, Ismaning, Germany) on ice for 10 min. After a 10-min centrifugation step at 10,000×g at 4° C., an aliquot of the supernatant is saved for caspase-3 immunoblotting and caspase 3-like activity is measured in 10 μl supernatants as enzymatic-conversion of the colorimetric substrate Ac-DEVD-pNA at 405 nm according to the manufacturer's instructions (QuantiZyme caspase 3 cellular activity assay kit, Biomol, Plymouth Meeting, Pa., USA).

Neutrophils = assay: Neutrophil apoptosis by oligonucleosomal DNA fragments after 2-MOE oligonucleotides; format: cell-based, human; settings: for GM-CSF- and G-CSF-mediated survival of neutrophils: oligonucleotide plus GM-CSF or G-CSF
Method: Neutrophil apoptosis is assessed by oligonucleosomal DNA fragmentation (Dibbert et al.(1999) Proc. Natl. Acad. Sci. USA 96, 13330-13335; Hebestreit et al. (1998), J. Exp. Med. 187, 415-425) according to Nicoletti et al. ((1991) J. Immunol. Meth. 139, 271-279). Briefly, cells are resuspended in hypotonic fluorochrome solution containing 50 μg/ml propidium iodide (Sigma Buchs, Switzerland), 0.1% sodium citrate (Sigma) and 0.1% (vol/vol) Triton-X 100 (Sigma), incubated at 4° C. for 10 h, and analyzed by flow cytometry (FACScan, Becton Dickinson, Heidelberg, Germany).
(§2) The 20-mer first generation antisense oligonucleotide 4003 targeting the survivin mRNA has been described above. The second generation 2′-O-methoxy-ethoxy (2′-MOE) gapmer version of 4003 (as) and its 3-base mismatch sequence control (ms) are synthesized using an Applied Biosystems 394B automated DNA synthesizer as described (De Mesaeker et al. (1995) Acc. Chem. Res. 28, 366-374). Sequences are as follows: antisense survivin, cscscsasgsCsCsTsTsCsCsAsGsCsTscscststsg; mismatch survivin, cscstsasgsCsCsTsTsCsCsAsGsGsTscscstsasg. Small letters refer to 2′-O-(2-methoxy)-ethyl-modified nucleotides, capital letters to DNA, and “s” refers to phosphorothioate linkages. Cells isolated and cultured as described above are treated with survivin antisense oligonucleotides (as) or survivin mismatch control oligonucleotides (ms) at the indicated concentrations. In the experiments in which GM-CSF (50 ng/ml; kind gift of T. Hartung, University of Konstanz, Konstanz, Germany) or G-CSF (25 ng/ml; PeproTech, BioConcept, Allschwil, Switzerland) are added, the oligonucleotides are given 2 h before addition of cytokines.
Values are means ±S.E.M. of four independent experiments. *, p<0.05; **, p<0.01; ***, p<0.001.

Survivin mRNA = assay: Real-time PCR quantification of survivin mRNA in neutrophils; format: cell-based, human; settings: for survivin mRNA expression in the absence of survival cytokines: 4-h transfection period, no cytokine
Method: (§3) Neutrophils are cultured at 1×10^6 per ml in complete culture medium. GM-CSF (50 ng/ml; kind gift of T. Hartung, University of Konstanz, Konstanz, Germany) or G-CSF (25 ng/ml; PeproTech, BioConcept, Allschwil, Switzerland) are added. The duration of GM-CSF or G-CSF stimulation is indicated in each experiment.
Neutrophils (1×10^7) are washed with PBS and the RNA is isolated according to the RNeasy protocol (Qiagen AG, Basel, Switzerland), which includes DNase digestion. RNA is reverse transcribed with the first strand cDNA synthesis kit (Amersham Pharmacia Biotech) by using random hexanucleotides according to the manufacturer's instructions. Real-time monitoring of PCR amplification of survivin cDNA is performed with a 1/100 dilution of neutrophil cDNA as previously described (Olie et al. (2000) Cancer Research 60, 2805-2809). Relative quantification of survivin expression is performed as described (Olie et al. (2000) Cancer Research 60, 2805-2809) utilizing rRNA as an internal standard.
as §2

caspase-3 [3] = assay: Caspase-3 immunoblotting in neutrophils; format: cell-based, human
Method: Immunoblotting is carried out as described above using supernatants of cell lysates. Caspase-3 is detected using a polyclonal anti-caspase-3 antibody (1/1000; Becton Dickinson Pharmingen, Heidelberg, Germany))
as §1

survivin = assay: Immunoblotting of survivin protein in neutrophils; format: cell-based, human
Method: as §3
Neutrophils (5×10^6) are washed with PBS, lysed with RIPA-buffer (0.5% sodium deoxycholate, 1% Nonidet P-40, 0.1% SDS in PBS) supplemented with a protease inhibitor-cocktail (Sigma) with frequent vortexing on ice for 40 min, including two freeze/thaw cycles using a methanol/dry ice bath. After a 10-min centrifugation to remove insoluble particles, equal amounts of the cell lysates are loaded on NuPage-Gels (Invitrogen Corp., Groningen, Netherlands). Separated proteins are electrotransferred onto polyvinylidene difluoride (PVDF) membranes (Immobilion-P, Millipore, Bedford, Mass.). The filters are incubated overnight with a polyclonal anti-survivin antibody (1/1000; R&D Systems, Abingdon, UK) at 4° C. in TBS/0.1% Tween-20/3% non-fat dry milk. Purified full-length recombinant human survivin (2 μl) is provided by R&D Systems as positive control for anti-survivin immunoblotting. For loading controls, stripped filters are incubated with a monoclonal anti-β-actin antibody (1/10,000; Sigma). Filters are washed in TBS/0.1% Tween-20 for 30 min and incubated with the appropriate HRP-conjugated secondary antibody (Amersham Pharmacia Biotech, Dübendorf, Switzerland) in TBS/0.1% Tween-20/5% non-fat dry milk for 1 h. Filters are developed by an ECL-technique (ECL-Kit, Amersham Pharmacia Biotech) according to the manufacturer's instructions.
as §2

## CS[C@]1(CO)C(=O)N2[C@H]3C(=CC=C[C@@H]3O)C[C@@]2(SC)C(=O)N1C [methylgliotoxin, bis-Dethio-bis (Methylthio) Methyl Gliotoxin]
[1]
  block of the GM-CSF inhibition of neutrophil apoptosis (MTT): blocking effect is not seen

## cscscsasgsCsCsTsTsCsCsAsGsCsTscscststsg (CCCAGCCTTCCAGCTCCTTG; sugars from the 5' end e5 d10 e5, all phosphorothioate, methylation of C not given here) [survivin-antisense, second generation 2′-O-methoxy-ethoxy (2′-MOE) gapmer version of 4003]
caspase-3 [2]; G-CSF
  optimal concentration at which inhibitory effect on caspase-3 activity is completely blocked: 5 µM
caspase-3 [2]; GM-CSF
  optimal concentration at which inhibitory effect on caspase-3 activity is completely blocked: 2.5 µM
caspase-3 [2]; dose-dependent, 10 h
  caspase-3-like enzymatic activity in the presence of GM-CSF or G-CSF: increase caspase-3-like enzymatic activity
Neutrophils; 10-h transfection period, no cytokine
  spontaneous apoptosis of neutrophils: increase spontaneous apoptosis
Neutrophils; G-CSF
  optimal concentration to block cytokine-mediated antiapoptosis: 5 µM
Neutrophils; GM-CSF
  optimal concentration to block cytokine-mediated antiapoptosis: 2.5 µM
Neutrophils
  GM-CSF- and G-CSF-mediated survival of neutrophils: blocked GM-CSF- and G-CSF-mediated survival in a dose-dependent manner
Survivin mRNA
  survivin mRNA expression in the absence of survival cytokines: only little effects
Survivin mRNA; G-CSF stimulation
  required concentration to significantly decrease survivin mRNA levels: 2.5 µM
Survivin mRNA; GM-CSF stimulation
  concentration sufficient to significantly decrease survivin mRNA levels: 1.0 µM
Survivin mRNA; oligonucleotides given 2 h before cytokines, dose-dependent
  increases in survivin mRNA expression upon GM-CSF and G-CSF stimulation: prevents increases in survivin mRNA expression
caspase-3 [3]; G-CSF
  optimal concentration to block inhibitory effects on caspase-3 processing: 5 µM
caspase-3 [3]; GM-CSF
  optimal concentration to block inhibitory effects on caspase-3 processing: 2.5 µM
caspase-3 [3]; dose-dependent, 10 h
  caspase-3 processing in the presence of GM-CSF or G-CSF: increase caspase-3 processing
survivin; 15-h transfection period, no cytokine
  protein expression of survivin in normal neutrophils: almost not affected
survivin; G-CSF stimulation
  optimal concentration to block increase in survivin protein expression: 5 µM
survivin; GM-CSF stimulation
  optimal concentration to block increase in survivin protein expression: 2.5 µM
survivin; dose-dependent
  increases in survivin expression (protein) upon GM-CSF and G-CSF stimulation: prevents increases in survivin expression

## cscstsasgsCsCsTsTsCsCsAsGsGsTscscstsasg (CCTAGCCTTCCAGGTCCTAG; sugars from the 5' end e5 d10 e5, all phosphorothioate, methylation of C not given here) [mismatch control oligonucleotides, reference compound]
Neutrophils
  GM-CSF- and G-CSF-mediated survival of neutrophils: unspecific effect
Survivin mRNA
  survivin mRNA expression in the absence of survival cytokines: only little effects

B1: G-CSF: inflammatory cytokine, neutrophil hematopoietin (PeproTech) (protein, UniProt P09919 31-207, looked up)
Granulocyte …: TPLGPASSLPQSFLLKCLEQVRKIQGDGAALQEKLVSECATYKLCHPEELVLLGHSLGIPWAPLSSCPSQALQLAGCLSQLHSGLFLYQGLLQALEGISPELGPTLDTLQLDVADFATTIWQQMEELGMAPALQPTQGAMPAFASAFQRRAGGVLVASHLQSFLEVSYRVLRHLAQP
Neutrophils; cytokine alone
  DNA-fragmentation of neutrophils with cytokine: prevent DNA-fragmentation
Survivin mRNA; cytokine added in vitro, A549 standard = 100%
  survivin mRNA in normal control neutrophils after cytokine addition: increase in survivin mRNA
caspase-3 [3]; neutrophils cultured with GM-CSF or G-CSF for 10 h
  caspase-3 proform and 17-kDa fragment levels with cytokine: maintain greater amounts of the caspase-3 proform
survivin; cultured for 12 h in the presence of cytokine
  Levels of survivin (immunoblot) in normal control neutrophils: increased
